As usually defined, the inhibition is the change of the read-out against control, counted positive when it falls.

The results in this text go back to patent US4701205A, “Chemical tobacco sucker control” (Chevron Research Company, priority 1986, dated 1987).

Molecules are shown by their SMILES. Like-named read-outs stand apart in the source and are kept apart here.

Assay [1] relates to tobacco suckers (axillary buds), Var. Glurk. Briefly: Tobacco sucker control, spray to run-off on topped plants, Var. Glurk. Conditions: for inhibition at 200 µg/mL / inhibition at 400 µg/mL / inhibition at 800 µg/mL / inhibition at 1600 µg/mL: Nicotiana tabacum; for Mean # of Nodes with Secondary Suckers / Mean Sucker Length (cm): Table 3. It counts as in vivo, Nicotiana tabacum. The protocol:
In this example, the title compound of Example 1 (i.e., 2-[1-(3-trans-chloroallyloxyamino)ethylidene]-5-(2-ethylthiopropyl)cyclohexane-1,3-dione was tested side-by-side with 2-[1-(3-trans-chloroallyloxyamino)butylidene]-5-(2-ethylthio-propyl)-cyclohexane-1,3-dione for their ability to control (retard or prevent) lateral axillary buds in tobacco plants.
(§1) Twenty-four hours before treatment, the tobacco plants are "topped", removing the top 15 cm of the plant. Any plants which are tending to lean or bend in the pot were staked, and all pots labeled. Three to five replicates were used per treatment. A 5% wt. stock solution of each test compound dissolved in acetone containing a small amount of non-ionic emulsifier was prepared. The stock solution was appropriately diluted with deionized water containing 0.625 g of emulsifier per liter of water, to the desired spray solution concentration.
(§2) Plants were sprayed to point of run-off with a pressure atomizer, making sure that the stem, leaf axils, and leaves were all wet thoroughly with the solution. 30 to 35 ml of solution were used per plant. This was checked by recording volume of solution in sprayer reservoir before and after treatment. After spraying, the plants were incubated for 18 to 23 days in a greenhouse maintained at 70°-80° F. using standing water capilliary irrigation. The plants were uniformly fertilized once per week with a standard house plant fertilizer. After the incubation period, the plants were evaluated at various times for sucker control. […] The growth of secondary suckers (buds at lower nodes) when present, were also measured.
(§3) In some instances, comparisons were also made on the basis of sucker length.
(§4) The results are reported as an average of the replicates used in each test.
(§5) In this example, the title compound of Example 1 was tested side-by-side with maleic hydrazide ("C-2") with respect to axillary bud control in two varities of tobacco plants. These tests were conducted following the same general procedure as described in Example 3 hereinabove using the dosage concentrations given in the tables hereinbelow. […]

In assay [2] the test system is tobacco suckers (axillary buds). Nature of the assay: Tobacco sucker control, soil drench treatment. It counts as in vivo. As to conditions: for inhibition at 400 µg/mL: Nicotiana tabacum, read-out: Percent Bud Inhibition Top Three Nodes. The protocol:
as §1
(§6) Plants were sprayed to point of run-off with a pressure atomizer, making sure that the stem, leaf axils, and leaves were all wet thoroughly with the solution. 30 to 35 ml of solution were used per plant. This was checked by recording volume of solution in sprayer reservoir before and after treatment. After spraying, the plants were incubated for 18 to 23 days in a greenhouse maintained at 70°-80° F. using standing water capilliary irrigation. The plants were uniformly fertilized once per week with a standard house plant fertilizer. After the incubation period, the plants were evaluated at various times for sucker control. To make this evaluation, the axillary buds at the top three nodes (primary suckers) of each plant were compared to those of the check, and a visual estimation of percent inhibition was made wherein 0=no inhibition of axillary buds as compared with check and 100=no axillary buds at top three nodes. The growth of secondary suckers (buds at lower nodes) when present, were also measured.
(§7) In this example, the title compound of Example 1 was tested side-by-side with maleic hydrazide for tobacco sucker control (inhibition), when applied as a soil drench and also when applied only to the leaves of the plant. The same general procedure as described in Example 3 was used with the exception that the test compound was applied only to the expanded leaves for foliage treatment (foliar paint) and the compound was drenched only on the soil in the pot for soil drench treatment. The average results of these tests are given in the following table, wherein 0=no inhibition and 100=complete inhibition, i.e., no axillary buds.

Assay [3] deals with tobacco suckers (axillary buds), Var. 12 × L8. Nature of the assay: whole plant or invertebrate. As to conditions: for inhibition at 200 µg/mL / inhibition at 400 µg/mL / inhibition at 800 µg/mL: Nicotiana tabacum, Table 2, read-out: Percent Bud Inhibition Top Two Nodes; for Mean # of Nodes with Secondary Suckers / Mean Sucker Length (cm): Table 3. It counts as in vivo, Nicotiana tabacum. The protocol: as §1, §2, §3, §4, §5

Assay [4] has as its system tobacco suckers (axillary buds). Nature of the assay: Tobacco sucker control, foliar paint (expanded leaves only). It is filed as in vivo. As to conditions: for inhibition at 400 µg/mL: Nicotiana tabacum, read-out: Percent Bud Inhibition Top Three Nodes; for Sucker control when applied only to the leaves (systemic action), in words: applied only to the leaves of the tobacco plant. The protocol:
as §1, §6, §7

The mark [5] stands for this setting: 504 h, Table I, 400 mg/l spray, three weeks after treatment, read-out: Percent Bud Inhibition.
Where [6] appears, read: 504 h, Table I, 800 mg/l spray, three weeks after treatment, read-out: Percent Bud Inhibition.
The mark [7] stands for this setting: 504 h, Table I, 1600 mg/l spray, three weeks after treatment, read-out: Percent Bud Inhibition.
[8] abbreviates: 1008 h, Table I, 400 mg/l spray, six weeks after treatment, read-out: Percent Bud Inhibition Top two Nodes.
Setting [9] is: 1008 h, Table I, 800 mg/l spray, six weeks after treatment, read-out: Percent Bud Inhibition Top two Nodes.
The mark [10] stands for this setting: 1008 h, Table I, 1600 mg/l spray, six weeks after treatment, read-out: Percent Bud Inhibition Top two Nodes.
Where [11] appears, read: 200 mg/l spray, six weeks after treatment.
Setting [12] is: 400 mg/l spray, six weeks after treatment.
Setting [13] is: 800 mg/l spray, six weeks after treatment.
Setting [14] is: Table I, 400 mg/l spray, six weeks after treatment.
Where [15] appears, read: Table I, 400 mg/l spray, three weeks after treatment.
[16] abbreviates: Table I, 800 mg/l spray, six weeks after treatment.
Where [17] appears, read: Table I, 800 mg/l spray, three weeks after treatment.
Setting [18] is: Table I, 1600 mg/l spray, six weeks after treatment.
[19] abbreviates: Table I, 1600 mg/l spray, three weeks after treatment.

For `CCSC(C)CC1CC(=O)C(=C(C)NOC/C=C/Cl)C(=O)C1` (stereo not drawn) [Compound 1, Trans-2-[1-(3-chloroallyloxyamino)-ethylidene]-5-(2-ethylthiopropyl)-cyclohexane-1,3-dione], the inhibition at 200 µg/mL in assay [1] (504 h, Table 2, 200 mg/l spray, three weeks after treatment, read-out: Percent Bud Inhibition Top Two Nodes) was 100%; in assay [1] (1008 h, Table 2, 200 mg/l spray, six weeks after treatment, read-out: Percent Bud Inhibition Top Two Nodes), 100%; in assay [3] (504 h, 200 mg/l spray, three weeks after treatment), 95%; in assay [3] (1008 h, 200 mg/l spray, six weeks after treatment), 86.3%. Besides, the inhibition at 400 µg/mL is 100% in assay [1] (504 h, Table 2, 400 mg/l spray, three weeks after treatment, read-out: Percent Bud Inhibition Top Two Nodes); 100% in assay [1] (setting [5]); 100% in assay [1] (1008 h, Table 2, 400 mg/l spray, six weeks after treatment, read-out: Percent Bud Inhibition Top Two Nodes); 100% in assay [1] (setting [8]); 100% in assay [2] (504 h, Soil Drench (30 ml/pot), 400 mg/l, three weeks after treatment); 100% in assay [2] (1008 h, Soil Drench (30 ml/pot), 400 mg/l, six weeks after treatment). For the same compound, the inhibition at 400 µg/mL came to 93% in assay [3] (504 h, 400 mg/l spray, three weeks after treatment); 96.9% in assay [3] (1008 h, 400 mg/l spray, six weeks after treatment); 98% in assay [4] (504 h, Foliar Paint (Leaves Only), 400 mg/l, three weeks after treatment); 99% in assay [4] (1008 h, Foliar Paint (Leaves Only), 400 mg/l, six weeks after treatment). Besides, the inhibition at 800 µg/mL in assay [1] (504 h, Table 2, 800 mg/l spray, three weeks after treatment, read-out: Percent Bud Inhibition Top Two Nodes) worked out at 100%; in assay [1] (setting [6]) it was 100%; in assay [1] (1008 h, Table 2, 800 mg/l spray, six weeks after treatment, read-out: Percent Bud Inhibition Top Two Nodes) it was 100%; in assay [1] (setting [9]) it was 100%; in assay [3] (504 h, 800 mg/l spray, three weeks after treatment), 95%; in assay [3] (1008 h, 800 mg/l spray, six weeks after treatment) it was 96.8%. In addition, the inhibition at 1600 µg/mL in assay [1] (setting [7]) and in assay [1] (setting [10]) was 100% throughout. Also, the “Mean # of Nodes with Secondary Suckers” value in assay [1] (setting [11]) is on record as 2.5; in assay [1] (setting [12]) it was 1.5; in assay [1] (setting [13]) it was 0.5; in assay [3] (setting [11]) it was 4.0; in assay [3] (setting [12]), 2.6; in assay [3] (setting [13]), 2.3. Besides, the “Mean Sucker Length (cm)” value is 30.8 cm in assay [1] (setting [11]); 9.6 cm in assay [1] (setting [12]); 10.0 cm in assay [1] (setting [13]); 24.0 cm in assay [3] (setting [11]); 45.3 cm in assay [3] (setting [12]); 17.4 cm in assay [3] (setting [13]). For the same compound, the “Number of Secondary Suckers (axillary buds at lower nodes)” value in assay [1] (setting [14]) worked out at 2.3; in assay [1] (setting [16]), 1.3; in assay [1] (setting [18]) it was 0. The “Total Sucker Length” value in assay [1] (setting [14]) came to 24 cm; in assay [1] (setting [16]) it was 7 cm; in assay [1] (setting [18]) it was 0 cm. The “Number of Usable Leaves” value came to 6.7 in assay [1] (setting [15]), 6.7 in assay [1] (setting [17]) and 6.3 in assay [1] (setting [19]). The “Sucker control when applied as a soil drench (systemic action), in words” value in assay [2] was “highly effective”. The “Observation on suckers at basal nodes (footnote a)” value in assay [4] (Foliar Paint, 400 mg/l, six weeks after treatment) is “some suckers appearing at basal nodes”. The “Sucker control when applied only to the leaves (systemic action), in words” value in assay [4] is “highly effective”.
As to `CCCC(NOC/C=C/Cl)=C1C(=O)CC(CC(C)SCC)CC1=O` (stereo not drawn) [Compound C-1, 2-[1-(3-trans-chloroallyloxyamino)butylidene]-5-(2-ethylthio-propyl)-cyclohexane-1,3-dione], the inhibition at 400 µg/mL in assay [1] (setting [5]) and in assay [1] (setting [8]) was 0% in each case. Moreover, the inhibition at 800 µg/mL in assay [1] (setting [6]) and in assay [1] (setting [9]) was 0% each time. The inhibition at 1600 µg/mL in assay [1] (setting [7]) amounted to 7%; in assay [1] (setting [10]) it was 0%. For the same compound, the “Number of Secondary Suckers (axillary buds at lower nodes)” value in assay [1] (setting [14]), in assay [1] (setting [16]) and in assay [1] (setting [18]) was 0 each time. In addition, the “Total Sucker Length” value in assay [1] (setting [14]), in assay [1] (setting [16]) and in assay [1] (setting [18]) was 0 cm in each case. In addition, the “Number of Usable Leaves” value in assay [1] (setting [15]) came out at 7.3; in assay [1] (setting [17]), 7.7; in assay [1] (setting [19]) it was 6.0.
Take `CCC(C)Nc1c([N+](=O)[O-])cc(C(C)(C)C)cc1[N+](=O)[O-]` (centres unmarked) [Compound C-3, 4-(1,1-dimethylethyl)-N--(1-methyl-propyl)-2,6-dinitrobenzenamine]: the inhibition at 400 µg/mL worked out at 27% in assay [2] (soil, 1008 h) and 3% in assay [4] (foliar, 1008 h). Moreover, the “Sucker control when applied as a soil drench (systemic action), in words” value in assay [2] is “ineffective”. In assay [4], the “Sucker control when applied only to the leaves (systemic action), in words” value is on record as “ineffective”.
